Assay in all cases: NCI tumour cell line growth inhibition, 48 h
The subject of assay [1] is 786-0.
Assay [2] relates to CAKI-1.
Assay [3] concerns CCRF-CEM.
The subject of assay [4] is DU-145.
Assay [5] relates to HL-60.
Assay [6] concerns HOP-92.
Assay [7] concerns KM-20L2.
Assay [8] concerns KM12.
For assay [9], the system named is LOX IMVI.
Assay [10] has as its system LXFL 529.
Assay [11] deals with M14.
Assay [12] relates to MOLT-4.
In assay [13] the test system is NCI-H23.
The test system of assay [14] is OVCAR-3.
Assay [15] concerns SF-268.
Assay [16] relates to SF-539.
Assay [17] deals with SK-MEL-2.
Assay [18] relates to U-251.
Assay [19] deals with UACC-257.
Assay [20] relates to UO-31.

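Test compounds were applied to cells in 96-well plates for 48 hours at 5 doses. Here, GI50 denotes the concentration required for 50% inhibition of growth.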 The source made the active and inactive calls. No stated cut-off is given here; in the data, active = GI50 up to about 1.1 µM and inactive = higher.

In the case of `COc1ccc(C2C(C)C(=O)C(C)C(c3ccc(OC)cc3)N2N=O)cc1` (stereo not given), the GI50 is 84.3 µM (inactive) in [1]; 246 µM (inactive) in assay [2]; > 700 µM (inactive) in assay [3]; 213 µM (inactive) in assay [4]; > 1000 µM (inactive) in assay [5]; 53.5 µM (inactive) in assay [6]. Also, the GI50 is > 925 µM (inactive) in assay [7]; > 678 µM (inactive) in [8]; 453 µM (inactive) in [9]; > 750 µM (inactive) in assay [10]; 537 µM (inactive) in assay [11]; > 789 µM (inactive) in [12]. The GI50 in assay [13] is 261 µM (inactive); in assay [14], 454 µM (inactive); in [15], 171 µM (inactive); in assay [16], > 75.5 µM (inactive); in [17], 215 µM (inactive); in [18] it was 117 µM (inactive). In addition, the GI50 in [19] was > 703 µM (inactive); in [20], 495 µM (inactive).

Consider `COC1N(C2CC(O)C(CO)O2)C(=O)NC(=O)C1(F)Br` (stereo not given), for which the GI50 is 5.01 µM (inactive) in [1]; > 19.9 µM (inactive) in assay [2]; 3.53 µM (inactive) in [3]; 4.72 µM (inactive) in assay [4]; > 50 µM (inactive) in assay [5]; 22 µM (inactive) in [6]. In addition, the GI50 was 16.6 µM (inactive) in assay [7]; 21.6 µM (inactive) in assay [8]; 6.1 µM (inactive) in assay [9]; 24.4 µM (inactive) in [10]; 15 µM (inactive) in assay [11]; 11 µM (inactive) in assay [12]. The GI50 in assay [13] was 6.73 µM (inactive); in assay [14], 10.7 µM (inactive); in [15] it was 1.2 µM (inactive); in [16], 0.239 µM (active); in assay [17] it was > 92 µM (inactive); in assay [18], 23.9 µM (inactive). Further, the GI50 in assay [19] was 70.5 µM (inactive); in [20], 10.3 µM (inactive).

For the compound `Cc1cnc(NCCCN(C)C)c2c1[nH]c1ccc3cc(O)ccc3c12`, the GI50 was 0.2 µM (active) in [1]; 0.566 µM (active) in assay [2]; 1.01 µM (active) in [3]; 1.29 µM (inactive) in assay [4]; 3.32 µM (inactive) in assay [5]; 0.187 µM (active) in assay [6]. In addition, the GI50 in [7] is 0.266 µM (active); in [8] it was 1.39 µM (inactive); in [9], 0.247 µM (active); in assay [10], 0.142 µM (active); in assay [11] it was 1.28 µM (inactive); in assay [12] it was 0.0181 µM (active). Moreover, the GI50 in assay [13] is 0.499 µM (active); in assay [14], 0.505 µM (active); in assay [15] it was 0.288 µM (active); in assay [16], 0.508 µM (active); in assay [17], 1.03 µM (active); in assay [18], 0.164 µM (active). The GI50 in assay [19] is 4.6 µM (inactive); in [20] it was 2.03 µM (inactive).

For `Cc1cc(-c2c(F)cc3c4nn([C@H]5CC[C@@H](N(C)C)CC5)c(=O)c-4cn(C4CC4)c3c2F)cc(C)n1`, the GI50 was 0.133 µM (active) in assay [1]; 0.0519 µM (active) in assay [2]; 0.0452 µM (active) in [3]; 0.416 µM (active) in [4]; 0.0383 µM (active) in [5]; 0.0453 µM (active) in assay [6]. Also, the GI50 in assay [7] was 0.14 µM (active); in assay [8], 0.313 µM (active); in [9], 0.0998 µM (active); in assay [10], 0.0528 µM (active); in assay [11], 0.46 µM (active); in [12] it was < 0.0316 µM (active). The GI50 in assay [13] was 0.132 µM (active); in assay [14], 0.805 µM (active); in [15] it was 0.119 µM (active); in assay [16] it was 0.177 µM (active); in [17], 0.82 µM (active); in assay [18], 0.105 µM (active). The GI50 in [19] was 1.25 µM (inactive); in assay [20], 1.59 µM (inactive).

Turning to `C=CCc1cc(-c2cc(CC=C)c(O)c(CN(CC)CC)c2)cc(CN(CC)CC)c1O`, the GI50 in [1] was 30.5 µM (inactive); in assay [2], 50.2 µM (inactive); in [3] it was 28.6 µM (inactive); in [4] it was > 100 µM (inactive); in [5], 35.4 µM (inactive); in assay [6] it was 18 µM (inactive). The GI50 in assay [7] was 14.5 µM (inactive); in assay [8], 43.3 µM (inactive); in [9] it was 16 µM (inactive); in assay [10] it was 46.6 µM (inactive); in assay [11], 8.93 µM (inactive); in assay [12] it was 39.9 µM (inactive). The GI50 in [13] was 60.1 µM (inactive); in assay [14], 64 µM (inactive); in assay [15], 76 µM (inactive); in assay [16], 21.4 µM (inactive); in assay [17], 26.9 µM (inactive); in assay [18], 42.4 µM (inactive). The GI50 was 23.6 µM (inactive) in assay [19] and 15.2 µM (inactive) in [20].

The values above are taken from ChEMBL document CHEMBL1201862, “PubChem BioAssay data set” (2004).
